Data reported in patent publication US8653075B2, “Therapeutic methods employing substituted piperidines which are CCR3 antagonists” (Boehringer Ingelheim International GmbH, priority 2009, dated 2014).

Biological target: T1, human chemokine receptor CCR3 (Homo sapiens, UniProt P51677)
T1 construct: expressed in transfected cells; host or cells: K562 cell line (hCCR3-C1 cells), membrane preparation
T1 sequence (P51677 1-355): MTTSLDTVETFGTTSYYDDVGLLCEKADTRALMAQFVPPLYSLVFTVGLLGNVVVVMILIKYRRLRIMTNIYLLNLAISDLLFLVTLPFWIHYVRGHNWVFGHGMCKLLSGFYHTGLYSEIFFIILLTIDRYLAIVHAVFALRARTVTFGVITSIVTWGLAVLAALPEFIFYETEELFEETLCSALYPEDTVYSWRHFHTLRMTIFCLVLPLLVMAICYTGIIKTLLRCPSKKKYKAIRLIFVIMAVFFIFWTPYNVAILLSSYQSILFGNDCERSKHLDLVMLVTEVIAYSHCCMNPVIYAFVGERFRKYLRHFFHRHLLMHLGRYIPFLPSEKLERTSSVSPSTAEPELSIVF
Assay: CCR3 receptor binding assay (SPA, 125I-eotaxin-1 displacement, hCCR3-C1 K562 cell membranes)
Settings: human Eotaxin-1 at human CCR3-Rezeptor; for inhibition at 1 µM: 1 μM test compound, read-out: CCR3 % inh @ 1 μM; for Ki: dose range 0.1 to 10000 nM
Experimental: The CCR3 receptor binding test is based on a K562 cell line (leukemia myelogenic blast cells) transfected with the human chemokine receptor CCR3 (hCCR3-C1 cells). The cell membranes were prepared by disrupting the hCCR3-C1 cells by […]. The preparation was centrifuged at 400 g 4° C. for 30 min. The supernatant was transferred into fresh tubes followed by a second centrifugation at 48000 g, 4° C. for 1 h. The membranes were re-suspended in the SPA incubation buffer (25 mM HEPES, 25 mM MgCl2 6×H2O, 1 mM CaCl2 2×H2O) without bovine serum albumin and homogenized by passing through a single use needle (Terumo, 23Gx1″). The membranes were stored in aliquots at −80° C.
The CCR3 receptor binding assay was performed in a Scintillation Proximity Assay (SPA) design with the radioligand recombinant human ^125Iodine-eotaxin-1. Cell membranes of hCCR3 C1 cells were again homogenized by passing through a single use needle (Terumo, 23Gx1″) and diluted in SPA incubation buffer in suitable concentrations (0.5-10 μg protein/well) in 96 well microtiter plates (1450-514, Perkin Elmer). The SPA assay was set up in the SPA incubation buffer with a final volume of 200 μl and final concentration of 25 mM HEPES, 25 mM MgCl2 6×H2O, 1 mM CaCl2 2×H2O and 0.1% bovine serum albumin. The SPA assay mixture contained 60 μl of the membrane suspension, 80 μl of Wheat Germ Agglutinin coated PVT beads (organic scintillator, GE Healthcare, RPNQ-0001) 0.2 mg/well), 40 μl of recombinant human ^125Jodine-eotaxin-1 (Biotrend), diluted in SPA buffer to a final concentration of 30.000 dpm per well, and 20 μl of the test compound (dissolved in DMSO dilutions). The SPA assay mixture was incubated for 2 h at room temperature. Bound radioactivity was determined with a scintillation counter (Micro Beta “Trilux”, Wallac). Included were controls for total binding (no displacer added, Bo) and non-specific binding (NSB) by adding unlabelled recombinant human Eotaxin-1 (Biotrend, Cat #300-21) or a reference compound.
Determination of the affinity of a test compound was calculated by subtraction of the non-specific binding (NSB) from the total binding (Bo) or the binding in the presence of the test compound (B) at a given compound concentration. […] The Bo-NSB value was set to 0% inhibition.
% inhibition and Ki values are (human Eotaxin-1 at human CCR3-Rezeptor): […]

Structure (SMILES) | inhibition at 1 µM | Ki
CCOC(=O)c1nnc(NC(=O)[C@H]2CCC(=O)N2C2CCN(Cc3ccc(Cl)c(C)c3)CC2)s1 [Example 3] | 75% | 240 nM
Cc1cc(CN2CCC(N3C(=O)CC[C@@H]3C(=O)Nc3cc(C4CC4)nn3C)CC2)ccc1Cl [Example 11] | 92% | 27 nM
CCNS(=O)(=O)c1cccc(NC(=O)[C@@H]2CCC(=O)N2C2CCN(Cc3ccc(Cl)c(C)c3)CC2)c1 [Example 12] | 84% | 88 nM
Cc1cc(CN2CCC(N3C(=O)CC[C@@H]3C(=O)N3CCc4ccccc43)CC2)ccc1Cl [Example 13] | 71% | 373 nM
Cc1cc(CN2CCC(N3C(=O)CC[C@@H]3C(=O)N[C@H]3CCN(C(=O)OC(C)(C)C)C3)CC2)ccc1Cl [Example 14] | 60% | 540 nM
Cc1cc(CN2CCC(N3C(=O)CC[C@@H]3C(=O)N3CCCc4ccccc43)CC2)ccc1Cl [Example 15] | 38% | 1110 nM
Cc1cc(CN2CCC(N3C(=O)CC[C@@H]3C(=O)Nc3cccc(-c4nc[nH]n4)c3)CC2)ccc1Cl [Example 16] | 98% | 20 nM
Cc1nccc(-c2cccc(NC(=O)[C@H]3CCC(=O)N3C3CCN(Cc4ccc(Cl)c(C)c4)CC3)c2)n1 [Example 24] | 99% | 22 nM
Cc1cc(CN2CCC(N3C(=O)CC[C@@H]3C(=O)Nc3cccc(S(=O)(=O)CCO)c3)CC2)ccc1Cl [Example 26] | 97% | 27 nM
Cc1cc(CN2CCC(N3C(=O)CC[C@@H]3C(=O)Nc3cccc(-c4c[nH]cn4)c3)CC2)ccc1Cl [Example 27] | 96% | 28 nM
Cc1cc(CN2CCC(N3C(=O)CC[C@@H]3C(=O)Nc3cccc(-c4cnco4)c3)CC2)ccc1Cl [Example 28] | 97% | 29 nM
Cc1cc(CN2CCC(N3C(=O)CC[C@@H]3C(=O)NC3CCC(NS(=O)(=O)c4ccccc4)CC3)CC2)ccc1Cl (some centres unmarked) [Example 29] | 94% | 31 nM
Cc1cc(CN2CCC(N3C(=O)CC[C@@H]3C(=O)Nc3ccc4[nH]ncc4c3)CC2)ccc1Cl [Example 31] | 93% | 50 nM
Cc1cc(CN2CCC(N3C(=O)CC[C@@H]3C(=O)Nc3cc(C(N)=O)cc(C(N)=O)c3)CC2)ccc1Cl [Example 32] | 82% | 145 nM
Cc1cc(CN2CCC(N3C(=O)CC[C@@H]3C(=O)Nc3ccc(N4CCCOC4=O)c(C)c3)CC2)ccc1Cl [Example 33] | 83% | 150 nM
COc1cc(NC(=O)[C@H]2CCC(=O)N2C2CCN(Cc3ccc(Cl)c(C)c3)CC2)ccc1N1CCCCC1=O [Example 34] | 80% | 152 nM
Cc1cc(CN2CCC(N3C(=O)CC[C@@H]3C(=O)Nc3cccnc3)CC2)ccc1Cl [Example 36] | 80% | 159 nM
CNC(=O)N1CCc2cc(NC(=O)[C@H]3CCC(=O)N3C3CCN(Cc4ccc(Cl)c(C)c4)CC3)ccc21 [Example 37] | 80% | 175 nM
Cc1cc(CN2CCC(N3C(=O)CC[C@H]3C(=O)NCc3ccccc3OC(F)F)CC2)ccc1Cl [Example 38] | 78% | 211 nM
Cc1cc(CN2CCC(N3C(=O)CC[C@@H]3C(=O)Nc3cccc(CNC(=O)NC4CCCCC4)c3)CC2)ccc1Cl [Example 39] | 80% | 227 nM
Cc1cccc(NC(=O)[C@@H]2CCC(=O)N2C2CCN(Cc3ccc(Cl)c(C)c3)CC2)n1 [Example 40] | 75% | 229 nM
CCn1nccc1CNC(=O)[C@H]1CCC(=O)N1C1CCN(Cc2ccc(Cl)c(C)c2)CC1 [Example 41] | 66% | 395 nM
Cc1cc(CN2CCC(N3C(=O)CC[C@H]3C(=O)Nc3n[nH]c4ccccc34)CC2)ccc1Cl [Example 42] | 63% | 482 nM
COc1ccccc1C1CCCN(C(=O)[C@H]2CCC(=O)N2C2CCN(Cc3ccc(Cl)c(C)c3)CC2)C1 (some centres unmarked) [Example 43] | 59% | 523 nM
Cc1cc(CN2CCC(N3C(=O)CC[C@@H]3C(=O)N[C@H]3CC[C@H](NC(=O)Nc4ccccc4)CC3)CC2)ccc1Cl [Example 44] | 63% | 552 nM
Cc1cc(CN2CCC(N3C(=O)CC[C@H]3C(=O)NCc3ccnn3C)CC2)ccc1Cl [Example 45] | 50% | –
Cc1cc(CN2CCC(N3C(=O)CC[C@H]3C(=O)NCc3ccccc3)CC2)ccc1Cl [Example 46] | 44% | 873 nM
Cc1cc(CN2CCC(N3C(=O)CC[C@H]3C(=O)NCc3noc(C4CCCC4)n3)CC2)ccc1Cl [Example 47] | 31% | 1190 nM
Cc1cc(CN2CCC(N3C(=O)CC[C@H]3C(=O)NC3CCC(F)(F)CC3)CC2)ccc1Cl [Example 48] | 40% | 965 nM

The next lines start with the values.

inhibition at 1 µM | Ki | Structure (SMILES)
101% | 4 nM | Cc1cc(CN2CCC(N3C(=O)CC[C@@H]3C(=O)Nc3cccc(-c4nnnn4C)c3)CC2)ccc1Cl [Example 1]
98% | 4 nM | CNC(=O)c1cc(NC(=O)[C@H]2CCC(=O)N2C2CCN(Cc3ccc(Cl)c(C)c3)CC2)cc(C(F)(F)F)c1 [Example 2]
99% | 5 nM | CCNS(=O)(=O)c1cccc(NC(=O)[C@H]2CCC(=O)N2C2CCN(Cc3ccc(Cl)c(C)c3)CC2)c1 [Example 4]
98% | 6 nM | Cc1cc(CN2CCC(N3C(=O)CC[C@@H]3C(=O)Nc3cccc(-c4nnn(C)n4)c3)CC2)ccc1Cl [Example 5]
100% | 7 nM | CCNS(=O)(=O)c1cccc(NC(=O)[C@H]2CCC(=O)N2C2CCN(Cc3ccc(Cl)c(Cl)c3)CC2)c1 [Example 6]
97% | 7 nM | CNC(=O)c1cc(NC(=O)[C@H]2CCC(=O)N2C2CCN(Cc3ccc(Cl)c(C)c3)CC2)cc(C(=O)NC)c1 [Example 7]
99% | 9 nM | Cc1cc(CN2CCC(N3C(=O)CC[C@@H]3C(=O)Nc3cccc(N(CC(=O)N(C)C)S(C)(=O)=O)c3)CC2)ccc1Cl [Example 8]
95% | 12 nM | Cc1cc(CN2CCC(N3C(=O)CC[C@@H]3C(=O)Nc3cccc(-c4ccn(C)n4)c3)CC2)ccc1Cl [Example 9]
98% | 16 nM | CC(=O)Nc1nc2c(s1)-c1cc(NC(=O)[C@H]3CCC(=O)N3C3CCN(Cc4ccc(Cl)c(C)c4)CC3)ccc1CC2 [Example 10]
100% | 5 nM | Cc1cc(CN2CCC(N3C(=O)CC[C@@H]3C(=O)Nc3cccc(N4CCNC4=O)c3)CC2)ccc1Cl [Example 17]
96% | 7 nM | Cc1cc(CN2CCC(N3C(=O)CC[C@@H]3C(=O)Nc3cccc(N4CCN(C)C4=O)c3)CC2)ccc1Cl [Example 18]
98% | 7 nM | Cc1cc(CN2CCC(N3C(=O)CC[C@@H]3C(=O)Nc3cccc(N4CCCCC4)c3)CC2)ccc1Cl [Example 19]
97% | 9 nM | CCN(C)S(=O)(=O)c1cccc(NC(=O)[C@H]2CCC(=O)N2C2CCN(Cc3ccc(Cl)c(C)c3)CC2)c1 [Example 20]
96% | 11 nM | CCS(=O)(=O)N(CC(=O)N(C)C)c1cccc(NC(=O)[C@H]2CCC(=O)N2C2CCN(Cc3ccc(Cl)c(C)c3)CC2)c1 [Example 21]
84% | 13 nM | Cc1cc(CN2CCC(N3C(=O)CC[C@@H]3C(=O)Nc3cccc(S(=O)(=O)N4CCCCC4)c3)CC2)ccc1Cl [Example 22]
95% | 18 nM | Cc1cc(CN2CCC(N3C(=O)CC[C@H]3C(=O)Nc3ccc4c(c3)CCC(=O)N4)CC2)ccc1Cl [Example 23]
